In patent US10588317B2, “Isoxazoline-substituted benzamides and analogues as insecticides” (priority 2015, dated 2020):

Assays:
Assay type in all cases: in vivo
Thrips tabaci = Thrips tabaci (onion thrips): feeding/contact activity; settings: 144 h, application rate 200 ppm, Thrips population of mixed ages, 6 days after infestation, read-out: mortality
Experimental: (§1) Sunflower leaf discs were placed on agar in 24-well microtiter plates and sprayed with aqueous test solutions prepared from 10'000 ppm DMSO stock solutions. After drying the leaf discs were infested with a Thrips population of mixed ages. The samples were assessed for mortality 6 days after infestation.

Myzus persicae = Myzus persicae (green peach aphid): feeding/contact activity; settings: 144 h, application rate 200 ppm, aphid population of mixed ages, 6 days after infestation, read-out: mortality
Experimental: Sunflower leaf discs were placed onto agar in a 24-well microtiter plate and sprayed with aqueous test solutions prepared from 10'000 ppm DMSO stock solutions. After drying, the leaf discs were infested with an aphid population of mixed ages. The samples were assessed for mortality 6 days after infestation.

Diabrotica balteata = Diabrotica balteata (corn root worm), sprayed maize sprouts; settings: 96 h, application rate 200 ppm, L2 larvae, 4 days after infestation, read-out: effect in at least one of the two categories (mortality or growth inhibition)
Outline: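 Maize sprouts on agar sprayed with aqueous dilutions of DMSO stocks, dried, then infested with L2 larvae (6–10 per well). Mortality and growth inhibition scored against untreated controls 4 days after infestation, at 200 ppm application rate.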

Tetranychus urticae = Tetranychus urticae (two-spotted spider mite): feeding/contact activity; settings: 192 h, application rate 200 ppm, mixed population (mobile stages), 8 days after infestation, read-out: mortality
Experimental: as §1, with “Bean” for “Sunflower”, “discs” for “discs were placed”, “were” for “and”, “mite” for “Thrips”, “on mixed population (mobile stages) 8” for “6”

Plutella xylostella = Plutella xylostella (diamond back moth), artificial diet; settings: 120 h, application rate 200 ppm, L2 larvae, 5 days after infestation, read-out: effect in at least one of the two categories (mortality or growth inhibition)
Outline: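 Artificial diet in 24-well plates treated with aqueous test solutions made from 10'000 ppm DMSO stocks, dried, then infested with L2 larvae (10 to 15 per well). Mortality and growth inhibition scored against untreated samples 5 days after infestation; activity cut-off at least 80% in either category at 200 ppm.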

Euschistus heros = Euschistus heros (neotropical brown stink bug), sprayed soybean leaves; settings: 120 h, application rate 200 ppm, N2 nymphs, 5 days after infestation, read-out: effect in at least one of the two categories (mortality or growth inhibition)
Outline: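 Soybean leaves on agar sprayed with aqueous dilutions of DMSO stocks, dried, then infested with N2 nymphs. Mortality and growth inhibition scored against untreated samples 5 days after infestation; application rate 200 ppm.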

Spodoptera littoralis [1] = experiment: Spodoptera littoralis (Egyptian cotton leaf worm), sprayed cotton leaf discs; settings: foliar, 72 h, application rate 200 ppm, L1 larvae, 3 days after infestation, read-out: control (mortality, anti-feeding effect, growth inhibition)
Outline: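 Cotton leaf discs on agar sprayed with aqueous test solutions made from 10'000 ppm DMSO stock; after drying, infested with five L1 larvae. Mortality, anti-feeding and growth inhibition scored versus untreated samples 3 days after infestation; control counted when any category exceeds untreated.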

Spodoptera littoralis [2] = experiment: Spodoptera littoralis (Egyptian cotton leaf worm), uptake by lettuce roots from agar; settings: 144 h, read-out: effect in at least one of the three categories (mortality, anti-feeding, or growth inhibition);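 note: 12.5 ppm test rate in agar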
Outline: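 Compound from 10'000 ppm DMSO stocks was mixed into agar, and lettuce grew on it for 7 days to take it up via roots. Cut leaves were infested with Spodoptera eggs; mortality, anti-feedant effect and growth inhibition scored 6 days later versus untreated samples.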

C#CCNS(=O)(=O)N1C[C@@H](NC(=O)c2ccc(C3=NO[C@@](c4cc(Cl)cc(Cl)c4)(C(F)(F)F)C3)cc2Cl)CO1 [Compound A158]
≥ 80%: mortality at 200 ppm (Thrips tabaci) | mortality at 200 ppm (Myzus persicae) | percent effect (mortality or growth inhibition) at 200 ppm (Diabrotica balteata) | mortality at 200 ppm (Tetranychus urticae) | percent effect (mortality or growth inhibition) at 200 ppm (Plutella xylostella) | percent effect (mortality or growth inhibition) at 200 ppm (Euschistus heros) | mortality at 200 ppm (Spodoptera littoralis [1]) | percent control (mortality, anti-feedant effect or growth inhibition) at 12.5 ppm (Spodoptera littoralis [2])

CNS(=O)(=O)N1C[C@@H](NC(=O)c2ccc(C3=NO[C@@](c4cc(Cl)cc(Cl)c4)(C(F)(F)F)C3)cc2C)CO1 [Compound A139, 4-[(5S)-5-(3,5-dichlorophenyl)-5-(trifluoromethyl)-4H-isoxazol-3-yl]-2-methyl-N-[(4R)-2-(methylsulfamoyl)isoxazolidin-4-yl]benzamide]
≥ 80%: mortality at 200 ppm (Thrips tabaci) | mortality at 200 ppm (Myzus persicae) | percent effect (mortality or growth inhibition) at 200 ppm (Diabrotica balteata) | mortality at 200 ppm (Tetranychus urticae) | percent effect (mortality or growth inhibition) at 200 ppm (Plutella xylostella) | percent effect (mortality or growth inhibition) at 200 ppm (Euschistus heros) | mortality at 200 ppm (Spodoptera littoralis [1]) | percent control (mortality, anti-feedant effect or growth inhibition) at 12.5 ppm (Spodoptera littoralis [2])

C=CCNS(=O)(=O)N1CC(NC(=O)c2ccc(C3=NO[C@@](c4cc(Cl)c(F)c(Cl)c4)(C(F)(F)F)C3)cc2C)CO1 (stereo partly shown) [Compound A105]
≥ 80%: mortality at 200 ppm (Thrips tabaci) | mortality at 200 ppm (Myzus persicae) | percent effect (mortality or growth inhibition) at 200 ppm (Diabrotica balteata) | mortality at 200 ppm (Tetranychus urticae) | percent effect (mortality or growth inhibition) at 200 ppm (Plutella xylostella) | percent effect (mortality or growth inhibition) at 200 ppm (Euschistus heros) | mortality at 200 ppm (Spodoptera littoralis [1]) | percent control (mortality, anti-feedant effect or growth inhibition) at 12.5 ppm (Spodoptera littoralis [2])

Cc1cc(C2=NO[C@@](c3cc(Cl)c(F)c(Cl)c3)(C(F)(F)F)C2)ccc1C(=O)N[C@H]1CON(S(C)(=O)=O)C1 (single isomer, unassigned) [Compound A13]
≥ 80%: mortality at 200 ppm (Thrips tabaci) | mortality at 200 ppm (Myzus persicae) | percent effect (mortality or growth inhibition) at 200 ppm (Diabrotica balteata) | mortality at 200 ppm (Tetranychus urticae) | percent effect (mortality or growth inhibition) at 200 ppm (Plutella xylostella) | percent effect (mortality or growth inhibition) at 200 ppm (Euschistus heros) | mortality at 200 ppm (Spodoptera littoralis [1]) | percent control (mortality, anti-feedant effect or growth inhibition) at 12.5 ppm (Spodoptera littoralis [2])

CCS(=O)(=O)N1C[C@@H](NC(=O)c2ccc(C3=NO[C@@](c4cc(Cl)c(Cl)c(Cl)c4)(C(F)(F)F)C3)cc2Cl)CO1 [Compound A147, 2-chloro-N-[(4R)-2-ethylsulfonylisoxazolidin-4-yl]-4-[(5S)-5-(3,4,5-trichlorophenyl)-5-(trifluoromethyl)-4H-isoxazol-3-yl]benzamide]
≥ 80%: mortality at 200 ppm (Thrips tabaci) | mortality at 200 ppm (Myzus persicae) | percent effect (mortality or growth inhibition) at 200 ppm (Diabrotica balteata) | mortality at 200 ppm (Tetranychus urticae) | percent effect (mortality or growth inhibition) at 200 ppm (Plutella xylostella) | percent effect (mortality or growth inhibition) at 200 ppm (Euschistus heros) | mortality at 200 ppm (Spodoptera littoralis [1]) | percent control (mortality, anti-feedant effect or growth inhibition) at 12.5 ppm (Spodoptera littoralis [2])

CCN(C)S(=O)(=O)N1C[C@@H](NC(=O)c2ccc(C3=NO[C@@](c4cc(Cl)c(Cl)c(Cl)c4)(C(F)(F)F)C3)cc2Cl)CO1 [Compound A132, 2-chloro-N-[(4R)-2-[ethyl(methyl)sulfamoyl]isoxazolidin-4-yl]-4-[(5S)-5-(3,4,5-trichlorophenyl)-5-(trifluoromethyl)-4H-isoxazol-3-yl]benzamide]
≥ 80%: mortality at 200 ppm (Thrips tabaci) | mortality at 200 ppm (Myzus persicae) | percent effect (mortality or growth inhibition) at 200 ppm (Diabrotica balteata) | mortality at 200 ppm (Tetranychus urticae) | percent effect (mortality or growth inhibition) at 200 ppm (Plutella xylostella) | percent effect (mortality or growth inhibition) at 200 ppm (Euschistus heros) | mortality at 200 ppm (Spodoptera littoralis [1]) | percent control (mortality, anti-feedant effect or growth inhibition) at 12.5 ppm (Spodoptera littoralis [2])

C=Cc1cc(C2=NOC(c3cc(Cl)cc(Cl)c3)(C(F)(F)F)C2)ccc1C(=O)NC1CON(S(C)(=O)=O)C1 (stereo not shown) [Compound A65]
≥ 80%: mortality at 200 ppm (Thrips tabaci) | mortality at 200 ppm (Myzus persicae) | percent effect (mortality or growth inhibition) at 200 ppm (Diabrotica balteata) | mortality at 200 ppm (Tetranychus urticae) | percent effect (mortality or growth inhibition) at 200 ppm (Plutella xylostella) | percent effect (mortality or growth inhibition) at 200 ppm (Euschistus heros) | mortality at 200 ppm (Spodoptera littoralis [1]) | percent control (mortality, anti-feedant effect or growth inhibition) at 12.5 ppm (Spodoptera littoralis [2])

CS(=O)(=O)N1C[C@@H](NC(=O)c2ccc(C3=NO[C@@](c4cc(Cl)cc(Cl)c4)(C(F)(F)F)C3)cc2Cl)CO1 [Compound A116]
≥ 80%: mortality at 200 ppm (Thrips tabaci) | mortality at 200 ppm (Myzus persicae) | percent effect (mortality or growth inhibition) at 200 ppm (Diabrotica balteata) | mortality at 200 ppm (Tetranychus urticae) | percent effect (mortality or growth inhibition) at 200 ppm (Plutella xylostella) | percent effect (mortality or growth inhibition) at 200 ppm (Euschistus heros) | mortality at 200 ppm (Spodoptera littoralis [1]) | percent control (mortality, anti-feedant effect or growth inhibition) at 12.5 ppm (Spodoptera littoralis [2])

CCN(C)S(=O)(=O)N1C[C@@H](NC(=O)c2ccc(C3=NO[C@@](c4cc(Cl)cc(Cl)c4)(C(F)(F)F)C3)cc2C)CO1 [Compound A142]
≥ 80%: mortality at 200 ppm (Thrips tabaci) | mortality at 200 ppm (Myzus persicae) | percent effect (mortality or growth inhibition) at 200 ppm (Diabrotica balteata) | mortality at 200 ppm (Tetranychus urticae) | percent effect (mortality or growth inhibition) at 200 ppm (Plutella xylostella) | percent effect (mortality or growth inhibition) at 200 ppm (Euschistus heros) | mortality at 200 ppm (Spodoptera littoralis [1]) | percent control (mortality, anti-feedant effect or growth inhibition) at 12.5 ppm (Spodoptera littoralis [2])

CNS(=O)(=O)N1CC(NC(=O)c2ccc(C3=NO[C@@](c4cc(Cl)c(F)c(Cl)c4)(C(F)(F)F)C3)cc2C)CO1 (stereo partly shown) [Compound A70]
≥ 80%: mortality at 200 ppm (Thrips tabaci) | mortality at 200 ppm (Myzus persicae) | percent effect (mortality or growth inhibition) at 200 ppm (Diabrotica balteata) | mortality at 200 ppm (Tetranychus urticae) | percent effect (mortality or growth inhibition) at 200 ppm (Plutella xylostella) | percent effect (mortality or growth inhibition) at 200 ppm (Euschistus heros) | mortality at 200 ppm (Spodoptera littoralis [1]) | percent control (mortality, anti-feedant effect or growth inhibition) at 12.5 ppm (Spodoptera littoralis [2])

CS(=O)(=O)N1C[C@@H](NC(=O)c2ccc(C3=NO[C@@](c4cc(Cl)cc(C(F)(F)F)c4)(C(F)(F)F)C3)cc2Cl)CO1 [Compound A123]
≥ 80%: mortality at 200 ppm (Thrips tabaci) | mortality at 200 ppm (Myzus persicae) | percent effect (mortality or growth inhibition) at 200 ppm (Diabrotica balteata) | mortality at 200 ppm (Tetranychus urticae) | percent effect (mortality or growth inhibition) at 200 ppm (Plutella xylostella) | percent effect (mortality or growth inhibition) at 200 ppm (Euschistus heros) | mortality at 200 ppm (Spodoptera littoralis [1]) | percent control (mortality, anti-feedant effect or growth inhibition) at 12.5 ppm (Spodoptera littoralis [2])

CNS(=O)(=O)N1C[C@@H](NC(=O)c2ccc(C3=NO[C@@](c4cc(Cl)c(Cl)c(Cl)c4)(C(F)(F)F)C3)cc2Cl)CO1 [Compound A126, 2-chloro-N-[(4R)-2-(methylsulfamoyl)isoxazolidin-4-yl]-4-[(5S)-5-(3,4,5-trichlorophenyl)-5-(trifluoromethyl)-4H-isoxazol-3-yl]benzamide]
≥ 80%: mortality at 200 ppm (Thrips tabaci) | mortality at 200 ppm (Myzus persicae) | percent effect (mortality or growth inhibition) at 200 ppm (Diabrotica balteata) | mortality at 200 ppm (Tetranychus urticae) | percent effect (mortality or growth inhibition) at 200 ppm (Plutella xylostella) | percent effect (mortality or growth inhibition) at 200 ppm (Euschistus heros) | mortality at 200 ppm (Spodoptera littoralis [1]) | percent control (mortality, anti-feedant effect or growth inhibition) at 12.5 ppm (Spodoptera littoralis [2])

Cc1cc(C2=NOC(c3cc(Cl)c(Cl)c(Cl)c3)(C(F)(F)F)C2)ccc1C(=O)NC1CON(S(C)(=O)=O)C1 (stereo not shown) [Compound A61]
≥ 80%: mortality at 200 ppm (Thrips tabaci) | mortality at 200 ppm (Myzus persicae) | percent effect (mortality or growth inhibition) at 200 ppm (Diabrotica balteata) | mortality at 200 ppm (Tetranychus urticae) | percent effect (mortality or growth inhibition) at 200 ppm (Plutella xylostella) | percent effect (mortality or growth inhibition) at 200 ppm (Euschistus heros) | mortality at 200 ppm (Spodoptera littoralis [1]) | percent control (mortality, anti-feedant effect or growth inhibition) at 12.5 ppm (Spodoptera littoralis [2])

CCN(C)S(=O)(=O)N1C[C@@H](NC(=O)c2ccc(C3=NO[C@@](c4cc(Cl)c(F)c(Cl)c4)(C(F)(F)F)C3)cc2Cl)CO1 [Compound A131, 2-chloro-4-[(5S)-5-(3,5-dichloro-4-fluoro-phenyl)-5-(trifluoromethyl)-4H-isoxazol-3-yl]-N-[(4R)-2-[ethyl(methyl)sulfamoyl]isoxazolidin-4-yl]benzamide]
≥ 80%: mortality at 200 ppm (Thrips tabaci) | mortality at 200 ppm (Myzus persicae) | percent effect (mortality or growth inhibition) at 200 ppm (Diabrotica balteata) | mortality at 200 ppm (Tetranychus urticae) | percent effect (mortality or growth inhibition) at 200 ppm (Plutella xylostella) | percent effect (mortality or growth inhibition) at 200 ppm (Euschistus heros) | mortality at 200 ppm (Spodoptera littoralis [1]) | percent control (mortality, anti-feedant effect or growth inhibition) at 12.5 ppm (Spodoptera littoralis [2])
